Key:
Assay in all cases: relative viability (nuclei count vs DMSO), 5 days (fraction); higher = more cells survive
HCC-366 = system: HCC-366
Procedure, shortened: (§1)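 After 5 days of treatment, lung cancer cells in 1536-well plates were fixed and stained in a single step (final 0.05% Triton X-100, 1% formaldehyde, 1 ug/ml Hoechst) and their nuclei counted on 4× images. Treatment had been applied by pin tool the day after seeding as one drug alone or as a fixed anchor-drug dose with five library-drug doses (not always all listed) in √10 steps. Relative viability is the nuclei count of treated wells divided by that of vehicle wells, and values are medians of duplicate plates.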

NCI-H647 = system: NCI-H647
Procedure, shortened: as §1

NCI-H2170 = system: NCI-H2170
Procedure, shortened: as §1

NCI-H1792 = system: NCI-H1792
Procedure, shortened: as §1

HCC-827 = system: HCC-827
Procedure, shortened: as §1

NCI-H1734 = system: NCI-H1734
Procedure, shortened: as §1

NCI-H1355 = system: NCI-H1355
Procedure, shortened: as §1

EKVX = system: EKVX
Procedure, shortened: as §1

NCI-H1437 = system: NCI-H1437
Procedure, shortened: as §1

NCI-H1993 = system: NCI-H1993
Procedure, shortened: as §1

NCI-H1395 = system: NCI-H1395
Procedure, shortened: as §1

NCI-H2342 = system: NCI-H2342
Procedure, shortened: as §1

HARA = system: HARA
Procedure, shortened: as §1

NCI-H522 = system: NCI-H522
Procedure, shortened: as §1

LOU-NH91 = system: LOU-NH91
Procedure, shortened: as §1

NCI-H2087 = system: NCI-H2087
Procedure, shortened: as §1

NCI-H2405 = system: NCI-H2405
Procedure, shortened: as §1

BEN = system: BEN
Procedure, shortened: as §1

`CCN(CC)CCCCNc1ncc2cc(-c3cc(OC)cc(OC)c3)c(NC(=O)NC(C)(C)C)nc2n1` + NC(=O)Nc1cc(-c2cccc(F)c2)sc1C(=O)N[C@H]1CCCNC1 [AZD7762] (partner 0.2 µM) was tested, and the relative viability (HCC-366; first compound 0.01 µM) was 0.256, the relative viability (HCC-366; first compound 0.03162 µM) was 0.462 and the relative viability (HCC-366; first compound 0.1 µM) was 0.277. For the same compound, the relative viability (HCC-366; first compound 0.3162 µM) was 0.289, the relative viability (HCC-366; first compound 1 µM) was 0.247 and the relative viability (NCI-H647; first compound 0.01 µM) was 0.272. For the same compound, the relative viability (NCI-H647; first compound 0.03162 µM) was 0.612, the relative viability (NCI-H647; first compound 0.1 µM) was 0.495 and the relative viability (NCI-H647; first compound 0.3162 µM) was 0.476. For the same compound, the relative viability (NCI-H647; first compound 1 µM) was 0.247, the relative viability (NCI-H2170; first compound 0.01 µM) was 0.865 and the relative viability (NCI-H2170; first compound 0.03162 µM) was 1.01. The relative viability (NCI-H2170; first compound 0.1 µM) was 1, the relative viability (NCI-H2170; first compound 0.3162 µM) was 0.953 and the relative viability (NCI-H2170; first compound 1 µM) was 0.869. The relative viability (NCI-H1792; first compound 0.01 µM) was 0.817, the relative viability (NCI-H1792; first compound 0.03162 µM) was 0.408 and the relative viability (NCI-H1792; first compound 0.1 µM) was 0.749. For the same compound, the relative viability (NCI-H1792; first compound 0.3162 µM) was 0.673, the relative viability (NCI-H1792; first compound 1 µM) was 0.586 and the relative viability (HCC-827; first compound 0.01 µM) was 0.222. It also gave a relative viability (HCC-827; first compound 0.03162 µM) of 0.249, a relative viability (HCC-827; first compound 0.1 µM) of 0.217 and a relative viability (HCC-827; first compound 0.3162 µM) of 0.236. The relative viability (HCC-827; first compound 1 µM) was 0.196, the relative viability (NCI-H1734; first compound 0.01 µM) was 0.534 and the relative viability (NCI-H1734; first compound 0.03162 µM) was 0.593. The relative viability (NCI-H1734; first compound 0.1 µM) was 0.52, the relative viability (NCI-H1734; first compound 0.3162 µM) was 0.604 and the relative viability (NCI-H1734; first compound 1 µM) was 0.486. The relative viability (NCI-H1355; first compound 0.01 µM) was 0.809, the relative viability (NCI-H1355; first compound 0.03162 µM) was 0.776 and the relative viability (NCI-H1355; first compound 0.1 µM) was 0.766. The relative viability (NCI-H1355; first compound 0.3162 µM) was 0.801, the relative viability (NCI-H1355; first compound 1 µM) was 0.515 and the relative viability (EKVX; first compound 0.03162 µM) was 0.585. The relative viability (EKVX; first compound 0.1 µM) was 0.643, the relative viability (EKVX; first compound 0.3162 µM) was 0.723 and the relative viability (EKVX; first compound 1 µM) was 0.709. The relative viability (NCI-H1437; first compound 0.01 µM) was 1.2, the relative viability (NCI-H1437; first compound 0.03162 µM) was 1.07 and the relative viability (NCI-H1437; first compound 0.1 µM) was 1.17. It also gave a relative viability (NCI-H1437; first compound 0.3162 µM) of 1.17, a relative viability (NCI-H1437; first compound 1 µM) of 1.04 and a relative viability (NCI-H1993; first compound 0.01 µM) of 0.896. The relative viability (NCI-H1993; first compound 0.03162 µM) was 0.708, the relative viability (NCI-H1993; first compound 0.1 µM) was 0.721 and the relative viability (NCI-H1993; first compound 0.3162 µM) was 0.97. For the same compound, the relative viability (NCI-H1993; first compound 1 µM) was 0.869, the relative viability (NCI-H1395; first compound 0.01 µM) was 0.402 and the relative viability (NCI-H1395; first compound 0.03162 µM) was 0.338. The relative viability (NCI-H1395; first compound 0.1 µM) was 0.422, the relative viability (NCI-H1395; first compound 0.3162 µM) was 0.392 and the relative viability (NCI-H1395; first compound 1 µM) was 0.309. It also gave a relative viability (NCI-H2342; first compound 0.01 µM) of 0.44, a relative viability (NCI-H2342; first compound 0.03162 µM) of 0.511 and a relative viability (NCI-H2342; first compound 0.1 µM) of 0.482. The relative viability (NCI-H2342; first compound 0.3162 µM) was 0.558, the relative viability (NCI-H2342; first compound 1 µM) was 0.485 and the relative viability (HARA; first compound 0.01 µM) was 0.245. The relative viability (HARA; first compound 0.03162 µM) was 0.376, the relative viability (HARA; first compound 0.1 µM) was 0.327 and the relative viability (HARA; first compound 0.3162 µM) was 0.277. The relative viability (HARA; first compound 1 µM) was 0.241, the relative viability (NCI-H522; first compound 0.01 µM) was 0.772 and the relative viability (NCI-H522; first compound 0.03162 µM) was 0.831. It also gave a relative viability (NCI-H522; first compound 0.1 µM) of 0.846, a relative viability (NCI-H522; first compound 0.3162 µM) of 0.781 and a relative viability (NCI-H522; first compound 1 µM) of 0.88. The relative viability (LOU-NH91; first compound 0.01 µM) was 0.783, the relative viability (LOU-NH91; first compound 0.03162 µM) was 0.768 and the relative viability (LOU-NH91; first compound 0.1 µM) was 0.828. It also gave a relative viability (LOU-NH91; first compound 0.3162 µM) of 0.845, a relative viability (LOU-NH91; first compound 1 µM) of 0.794 and a relative viability (NCI-H2087; first compound 0.01 µM) of 1.21. It also gave a relative viability (NCI-H2087; first compound 0.03162 µM) of 1.31, a relative viability (NCI-H2087; first compound 0.1 µM) of 1.34 and a relative viability (NCI-H2087; first compound 0.3162 µM) of 1.29. For the same compound, the relative viability (NCI-H2087; first compound 1 µM) was 1.18, the relative viability (NCI-H2405; first compound 0.01 µM) was 0.792 and the relative viability (NCI-H2405; first compound 0.03162 µM) was 0.734. It also gave a relative viability (NCI-H2405; first compound 0.1 µM) of 0.812, a relative viability (NCI-H2405; first compound 0.3162 µM) of 0.803 and a relative viability (NCI-H2405; first compound 1 µM) of 0.628. For the same compound, the relative viability (BEN; first compound 0.01 µM) was 0.669, the relative viability (BEN; first compound 0.03162 µM) was 0.61 and the relative viability (BEN; first compound 0.1 µM) was 0.703. The relative viability (BEN; first compound 0.3162 µM) was 0.757 and the relative viability (BEN; first compound 1 µM) was 0.676.

Source: the supplement of paper PMC10307832
